Columns and labels:
Test in all cases: Test C postemergence
Format in all cases: in vivo
[1] = tested on: oilseed rape (Brassica napus); details: Brassica napus, post-emergence, Postemergence, scale 0 to 100, read-out: Plant response rating, Oilseed Rape
How it was run: (§1)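 Seeded loam-sand soil (preemergence) or young potted plants of 2-18 cm (postemergence) received test chemical formulated with surfactant in a non-phytotoxic solvent. Pots were kept in the greenhouse for 13-15 days before a visual 0-100 control rating relative to controls.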

[2] = tested on: galium (catchweed bedstraw, Galium aparine); details: Galium, post-emergence, 336 h, Postemergence, scale 0 to 100, read-out: Plant response rating, Galium
How it was run: as §1

[3] = tested on: ragweed (common ragweed, Ambrosia elatior); details: Ambrosia artemisiifolia, post-emergence, 336 h, Postemergence, scale 0 to 100, read-out: Plant response rating, Ragweed
How it was run: as §1

[4] = tested on: waterhemp (common waterhemp, Amaranthus rudis); details: Amaranthus tuberculatus, post-emergence, Postemergence, scale 0 to 100, read-out: Plant response rating, Waterhemp
How it was run: as §1

[5] = tested on: johnsongrass (Sorghum halepense); details: Sorghum halepense, post-emergence, 336 h, Postemergence, scale 0 to 100, read-out: Plant response rating, Johnsongrass
How it was run: as §1

[6] = tested on: morningglory (Ipomoea coccinea); details: Ipomoea, post-emergence, 336 h, Postemergence, scale 0 to 100, read-out: Plant response rating, Morningglory
How it was run: as §1

[7] = tested on: winter wheat (Triticum aestivum); details: Triticum aestivum, post-emergence, 336 h, Postemergence, scale 0 to 100, read-out: Plant response rating, Wheat
How it was run: as §1

[8] = tested on: barnyardgrass (Echinochloa crus-galli); details: Echinochloa crus-galli, post-emergence, Postemergence, scale 0 to 100, read-out: Plant response rating, Barnyardgrass
How it was run: as §1

corn (Zea mays) = details: Zea mays, post-emergence, 336 h, Postemergence, scale 0 to 100
How it was run: as §1

kochia (Kochia scoparia) = details: Bassia scoparia, post-emergence, Postemergence, scale 0 to 100, read-out: Plant response rating, Kochia
How it was run: as §1

[9] = tested on: pigweed (Amaranthus retroflexus); details: Amaranthus retroflexus, post-emergence, 336 h, Postemergence, scale 0 to 100, read-out: Plant response rating, Pigweed
How it was run: as §1

[10] = tested on: large (Lg) crabgrass (Digitaria sanguinalis); details: Digitaria sanguinalis, post-emergence, 336 h, Postemergence, scale 0 to 100, read-out: Plant response rating, Crabgrass, Large
How it was run: as §1

soybean (Glycine max) = details: Glycine max, post-emergence, Postemergence, scale 0 to 100, read-out: Plant response rating, Soybean
How it was run: as §1

wild oat (Avena fatua) = details: Avena fatua, post-emergence, Postemergence, scale 0 to 100, read-out: Plant response rating, Oat, Wild
How it was run: as §1

[11] = tested on: Italian ryegrass (Lolium multiflorum); details: Lolium multiflorum, post-emergence, 336 h, Postemergence, scale 0 to 100, read-out: Plant response rating, Ryegrass, Italian
How it was run: as §1

Structure (SMILES): Fc1cccc(Oc2ncc(Cl)cn2)c1Oc1ccc(Cl)nc1 [Compound 20]
- plant injury at 31 g/ha ([1]; 31 g ai/ha): 15%
- plant injury at 62 g/ha ([1]; 62 g ai/ha): 70%
- plant injury at 125 g/ha ([1]; 125 g ai/ha): 80%
- plant injury at 250 g/ha ([1]; 250 g ai/ha): 70%
- pest or weed control at 31 g/ha ([2]; 31 g ai/ha): 50%
- pest or weed control at 62 g/ha ([2]; 62 g ai/ha): 50%
- pest or weed control at 125 g/ha ([2]; 125 g ai/ha): 70%
- pest or weed control at 250 g/ha ([2]; 250 g ai/ha): 95%
- pest or weed control at 31 g/ha ([3]; 31 g ai/ha): 20%
- pest or weed control at 62 g/ha ([3]; 62 g ai/ha): 20%
- pest or weed control at 125 g/ha ([3]; 125 g ai/ha): 45%
- pest or weed control at 250 g/ha ([3]; 250 g ai/ha): 60%
- pest or weed control at 31 g/ha ([4]; 31 g ai/ha): 85%
- pest or weed control at 62 g/ha ([4]; 62 g ai/ha): 90%
- pest or weed control at 125 g/ha ([4]; 125 g ai/ha): 90%
- pest or weed control at 250 g/ha ([4]; 250 g ai/ha): 95%
- pest or weed control at 31 g/ha ([5]; 31 g ai/ha): 5%
- pest or weed control at 62 g/ha ([5]; 62 g ai/ha): 5%
- pest or weed control at 125 g/ha ([5]; 125 g ai/ha): 5%
- pest or weed control at 250 g/ha ([5]; 250 g ai/ha): 5%
- pest or weed control at 31 g/ha ([6]; 31 g ai/ha): 30%
- pest or weed control at 62 g/ha ([6]; 62 g ai/ha): 60%
- pest or weed control at 125 g/ha ([6]; 125 g ai/ha): 65%
- pest or weed control at 250 g/ha ([6]; 250 g ai/ha): 65%
- plant injury at 31 g/ha ([7]; 31 g ai/ha): 0%
- plant injury at 62 g/ha ([7]; 62 g ai/ha): 0%
- plant injury at 125 g/ha ([7]; 125 g ai/ha): 5%
- plant injury at 250 g/ha ([7]; 250 g ai/ha): 5%
- pest or weed control at 31 g/ha ([8]; 31 g ai/ha): 5%
- pest or weed control at 62 g/ha ([8]; 62 g ai/ha): 5%
- pest or weed control at 125 g/ha ([8]; 125 g ai/ha): 10%
- pest or weed control at 250 g/ha ([8]; 250 g ai/ha): 10%
- Corn plant response rating (crop injury, 0 = no effect, 100 = complete kill) at 31 g/ha (corn (Zea mays); 31 g ai/ha): 5%
- Corn plant response rating (crop injury, 0 = no effect, 100 = complete kill) at 62 g/ha (corn (Zea mays); 62 g ai/ha): 15%
- Corn plant response rating (crop injury, 0 = no effect, 100 = complete kill) at 125 g/ha (corn (Zea mays); 125 g ai/ha): 20%
- Corn plant response rating (crop injury, 0 = no effect, 100 = complete kill) at 250 g/ha (corn (Zea mays); 250 g ai/ha): 15%
- pest or weed control at 31 g/ha (kochia (Kochia scoparia); 31 g ai/ha): 80%
- pest or weed control at 62 g/ha (kochia (Kochia scoparia); 62 g ai/ha): 90%
- pest or weed control at 125 g/ha (kochia (Kochia scoparia); 125 g ai/ha): 90%
- pest or weed control at 250 g/ha (kochia (Kochia scoparia); 250 g ai/ha): 98%
- pest or weed control at 31 g/ha ([9]; 31 g ai/ha): 75%
- pest or weed control at 62 g/ha ([9]; 62 g ai/ha): 80%
- pest or weed control at 125 g/ha ([9]; 125 g ai/ha): 90%
- pest or weed control at 250 g/ha ([9]; 250 g ai/ha): 98%
- pest or weed control at 31 g/ha ([10]; 31 g ai/ha): 5%
- pest or weed control at 62 g/ha ([10]; 62 g ai/ha): 5%
- pest or weed control at 125 g/ha ([10]; 125 g ai/ha): 10%
- pest or weed control at 250 g/ha ([10]; 250 g ai/ha): 20%
- plant injury at 31 g/ha (soybean (Glycine max); 31 g ai/ha): 25%
- plant injury at 62 g/ha (soybean (Glycine max); 62 g ai/ha): 70%
- plant injury at 125 g/ha (soybean (Glycine max); 125 g ai/ha): 65%
- plant injury at 250 g/ha (soybean (Glycine max); 250 g ai/ha): 65%
- pest or weed control at 31 g/ha (wild oat (Avena fatua); 31 g ai/ha): 5%
- pest or weed control at 62 g/ha (wild oat (Avena fatua); 62 g ai/ha): 10%
- pest or weed control at 125 g/ha (wild oat (Avena fatua); 125 g ai/ha): 10%
- pest or weed control at 250 g/ha (wild oat (Avena fatua); 250 g ai/ha): 10%
- pest or weed control at 31 g/ha ([11]; 31 g ai/ha): 5%
- pest or weed control at 62 g/ha ([11]; 62 g ai/ha): 5%
- pest or weed control at 125 g/ha ([11]; 125 g ai/ha): 10%
- pest or weed control at 250 g/ha ([11]; 250 g ai/ha): 15%
